Results reported in US6911537B2, “Xenobiotic compound modulated expression systems and uses therefor” (The Salk Institute for Biological Studies, priority 1998, dated 2005).
Like-named read-outs stand apart in the source and are kept apart here.

Assays:
[1] = clinical trials, of 2510 patients; cited from earlier work
mouse PXR = molecular target: T1, mouse PXR (Mus musculus, UniProt O54915); test: Transfection-based reporter assay in CV-1 cells, mouse PXR; settings: 50 μM, tamoxifen 5 μM (FIG. 7B)
T1 sequence (O54915 1-431): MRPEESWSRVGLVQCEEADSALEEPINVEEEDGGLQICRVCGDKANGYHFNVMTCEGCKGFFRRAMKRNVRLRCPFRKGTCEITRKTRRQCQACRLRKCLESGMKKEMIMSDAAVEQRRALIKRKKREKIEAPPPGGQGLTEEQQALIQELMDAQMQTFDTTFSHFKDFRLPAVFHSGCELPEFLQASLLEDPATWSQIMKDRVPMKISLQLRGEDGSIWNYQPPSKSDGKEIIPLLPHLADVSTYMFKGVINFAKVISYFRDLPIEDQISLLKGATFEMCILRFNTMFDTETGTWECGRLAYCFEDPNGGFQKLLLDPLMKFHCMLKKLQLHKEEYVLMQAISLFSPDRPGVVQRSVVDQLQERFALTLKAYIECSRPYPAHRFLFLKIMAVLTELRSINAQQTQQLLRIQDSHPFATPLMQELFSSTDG
Description: FIGS. 7A-C are bar graphs illustrating the ability of a panel of compounds to activate a representative of three members of the nuclear receptor superfamily, human SXR (FIG. 7A); mouse PXR (FIG. 7B); and human estrogen receptor alpha (hERα; FIG. 7C).

SXR [2] = molecular target: T2, SXR (Homo sapiens, UniProt O75469)
T2 sequence (O75469 1-434): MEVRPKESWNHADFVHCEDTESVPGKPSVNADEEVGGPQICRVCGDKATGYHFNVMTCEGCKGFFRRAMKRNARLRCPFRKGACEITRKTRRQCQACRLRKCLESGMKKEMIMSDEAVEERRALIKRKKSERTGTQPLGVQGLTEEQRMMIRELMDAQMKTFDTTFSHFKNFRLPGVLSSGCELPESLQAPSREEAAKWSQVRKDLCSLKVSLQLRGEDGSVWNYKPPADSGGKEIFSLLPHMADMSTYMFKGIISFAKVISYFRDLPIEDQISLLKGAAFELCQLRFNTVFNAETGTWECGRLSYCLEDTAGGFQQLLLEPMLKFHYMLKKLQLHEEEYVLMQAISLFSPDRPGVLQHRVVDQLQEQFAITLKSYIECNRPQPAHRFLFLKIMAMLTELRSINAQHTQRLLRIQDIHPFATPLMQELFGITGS
T2 sequence (P19793 1-462 partner): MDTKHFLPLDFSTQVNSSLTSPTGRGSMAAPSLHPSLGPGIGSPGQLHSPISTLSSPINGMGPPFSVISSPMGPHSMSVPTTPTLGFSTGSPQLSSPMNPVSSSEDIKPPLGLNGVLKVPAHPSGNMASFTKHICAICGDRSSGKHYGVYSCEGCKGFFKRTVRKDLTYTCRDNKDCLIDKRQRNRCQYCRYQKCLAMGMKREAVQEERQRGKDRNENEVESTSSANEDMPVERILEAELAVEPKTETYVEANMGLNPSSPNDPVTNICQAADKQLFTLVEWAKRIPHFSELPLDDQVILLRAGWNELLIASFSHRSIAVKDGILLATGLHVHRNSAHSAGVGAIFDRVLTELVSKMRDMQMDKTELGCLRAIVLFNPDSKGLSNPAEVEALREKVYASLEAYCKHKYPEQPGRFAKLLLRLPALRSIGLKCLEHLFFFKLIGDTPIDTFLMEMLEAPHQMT
Description: (§4) Thus, the protein coding region of SXR was PCR amplified and subcloned into NcoI and BamH1 sites of the vector pCDG1 (see Blumberg et al., supra). During this process the putative initiator Leu was converted to Met with a Kozak consensus sequence CCATGG.

SXR [3] = molecular target: T3, SXR (Homo sapiens, UniProt O75469); remark: listed apart in the source
T3 sequence (O75469 1-434): T2 sequence (O75469 1-434)
Description: (§1) The PCR-amplified sequences and target mutagenesis were confirmed by DNA sequencing.
(§2) All compounds were purchased from Sigma.
(§3) A panel of natural and synthetic steroid and nonsteroid compounds were tested for their ability to activate SXR and/or PXR in transfection-based assays using primary rat hepatocytes as recipient cells and the cellular promoters of the rat CYP3A23 gene or the human CYP3A4 gene as reporters.

endogenous PXR [4] = molecular target: T4, endogenous PXR (Rattus norvegicus, UniProt Q9R1A7); settings: hepatocytes
T4 sequence (Q9R1A7 1-431): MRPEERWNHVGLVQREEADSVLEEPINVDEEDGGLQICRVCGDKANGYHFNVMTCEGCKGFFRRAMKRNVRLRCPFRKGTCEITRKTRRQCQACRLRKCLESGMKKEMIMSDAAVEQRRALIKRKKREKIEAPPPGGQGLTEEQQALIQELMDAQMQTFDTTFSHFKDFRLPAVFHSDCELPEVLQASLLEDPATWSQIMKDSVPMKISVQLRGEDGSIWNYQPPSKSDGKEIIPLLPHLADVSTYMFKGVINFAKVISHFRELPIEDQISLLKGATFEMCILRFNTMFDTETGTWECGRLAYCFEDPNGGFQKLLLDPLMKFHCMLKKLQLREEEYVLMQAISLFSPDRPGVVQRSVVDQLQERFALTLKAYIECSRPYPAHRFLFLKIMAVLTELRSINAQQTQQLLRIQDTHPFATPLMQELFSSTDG
Description: as §1, §2, §3

endogenous PXR [5] = molecular target: T4, endogenous PXR; test: Human CYP3A4 cellular promoter reporter in primary rat hepatocytes, endogenous receptor; settings: rodent cellular environment (FIG. 8B)
Description: as §1, §2

CYP3A11 gene = settings: single dose 24 h before sacrifice
Description: The animals were allowed free access to food and water at all times. […] When necessary, mice were treated with a single intraperitoneal injection of DEX (50 mg/kg), PCN (40 mg/kg), or CTZ (50 mg/kg).
To detect specific transcripts, [^32P]-cDNA probes labeled by Random Primer Labeling Kit (Boringher) were hybridized to the membranes. The probe used to detect transgene contains both the SXR cDNA and the SV40 sequences. […] The filters were subsequently stripped and rehybridized with a murine glyceraldehyde-3-phosphate dehydrogenase (GAPDH) cDNA probe for RNA loading normalization.
Tissues were harvested 24 h later and subjected to Northern blot analysis.

SXR [6] = molecular target: T2, SXR; test: Transfection-based reporter assay in CV-1 cells, GAL4-SXR or full-length SXR; design: Activation of SXR response elements (DR-3, DR-4, DR-5) by full-length SXR: dose or concentration left out as unconfirmed; settings: for Activation of SXR in transfection-based assays: GAL4-SXR LBD chimera or full-length SXR, CV-1 cells, steroids at high doses, up to 50 mM [sic]; for Activation of SXR response elements (DR-3, DR-4, DR-5) by full-length SXR: cotransfection, panel of steroids as printed (FIG. 4)
Description: as §4

## Cc1c(C)c2c(c(C)c1O)CCC(C)(COc1ccc(CC3SC(=O)NC3=O)cc1)O2 (stereo not shown) [troglitazone]
[1]
  Incidence of hepatotoxicity (alanine aminotransferase level > three times the upper limit of normal): 1.9%

## C[C@]12CC[C@H]3[C@@H](CCC4=CC(=O)CC[C@@]43C)[C@@H]1CC[C@@H]2O [testosterone]
Mouse PXR
  Activation of mouse PXR: similarly activated
SXR [2]
  Activation of SXR in transfection-based assays: activated

## CC(=O)[C@H]1[C@H](C#N)C[C@H]2[C@@H]3CC=C4C[C@@H](O)CC[C@]4(C)[C@H]3CC[C@@]21C [PCN, pregnenolone-16-carbonitrile]
Mouse PXR
  Activation of mouse PXR: preferentially activated
SXR [3]
  Activation of CYP3A23 promoter reporter with mutated DR-3 element (DR3/M1, DR3/M2): abolished
  Inducibility of CYP3A23 promoter reporter with DR-3 replaced by IR-6 element (DR3/IR6): rescueS the inducibility
  Induction of CYP3A23 promoter reporter with co-transfection of SXR: remained unchanged
Endogenous PXR [4]
  Activation of CYP3A23 promoter reporter in the absence of SXR: most potent and efficacious tested activators
Endogenous PXR [5]
  Activation of human CYP3A4 promoter reporter via endogenous PXR: can be activated
CYP3A11 gene; RIF 5 mg/kg, BRL 20 mg/kg, troglitazone and ciglitazone 150 mg/kg by gavage, CTZ 50 mg/kg, PCN 40 mg/kg i.p.
  Induction of liver CYP3A11 expression in Alb-SXR transgenic mice: equally efficacious CYP3A11 inducer
CYP3A11 gene; same doses as in transgenic mice
  Induction of liver CYP3A11 expression in wild type / nontransgenic mice: equally efficacious CYP3A11 inducer
SXR [2]
  Activation of human SXR by compounds known to induce CYP3A4: weak activator
SXR [6]
  Activation of SXR in transfection-based assays: activated
  Activation of SXR response elements (DR-3, DR-4, DR-5) by full-length SXR: among the best activators

## C[C@]12CC[C@@H]3c4ccc(O)cc4CC[C@H]3[C@@H]1CC[C@@H]2O [estradiol, 17β-estradiol]
Mouse PXR
  Activation of mouse PXR: similarly activated
SXR [3]
  Induction of CYP3A23 promoter reporter with co-transfection of SXR: significant induction
SXR [6]; 50 μM, tamoxifen 5 μM (FIG. 7A)
  Activation of human SXR by compounds known to induce CYP3A4: most potent activators
SXR [6]
  Activation of SXR in transfection-based assays: remarkably effective activators
  Activation of SXR response elements (DR-3, DR-4, DR-5) by full-length SXR: among the best activators
